# Laboratory results reported in patent US20240000872A1, “NOVEL BACTERIOPHAGE THAT LYSES ACINETOBACTER GENUS BACTERIA HAVING RESISTANCE TO ANTIBIOTICS” (priority 2020, published 2024).
# Test system: Acinetobacter baumannii strains
# Test: Antibiotic susceptibility test (CLSI disk diffusion test method, read per CLSI 2016); note: key: ‘S’ means susceptible; ‘I’ means intermediate; ‘R’ means resistant
# Assay type: cell-based
smiles,measurement,setting,value
"CCN1CCN(C(=O)N[C@@H](C(=O)N[C@@H]2C(=O)N3[C@@H]2SC(C)(C)[C@@H]3C(=O)O)c2ccccc2)C(=O)C1=O [Piperacillin, piperacillin]",antibiotic susceptibility class,host strain YMC14/01/C29,R
same,antibiotic susceptibility class,host strain YMC14/01/IP122,R
same,antibiotic susceptibility class,host strain YMC14/01/L8,R
same,antibiotic susceptibility class,host strain YMC14/01/P31,R
same,antibiotic susceptibility class,host strain YMC14/01/P117,R
same,antibiotic susceptibility class,host strain YMC14/01/P224,R
same,antibiotic susceptibility class,host strain YMC14/01/P727,R
same,antibiotic susceptibility class,host strain YMC14/01/P728,R
same,antibiotic susceptibility class,host strain YMC14/01/R130,R
same,antibiotic susceptibility class,host strain YMC14/01/R160,R
same,antibiotic susceptibility class,host strain YMC14/01/R198,R
same,antibiotic susceptibility class,host strain YMC14/01/R257,R
same,antibiotic susceptibility class,host strain YMC14/01/R270,R
same,antibiotic susceptibility class,host strain YMC14/01/R324,R
same,antibiotic susceptibility class,host strain YMC14/01/R443,R
same,antibiotic susceptibility class,host strain YMC14/01/R451,R
same,antibiotic susceptibility class,host strain YMC14/01/R560,R
same,antibiotic susceptibility class,host strain YMC14/01/R617,R
same,antibiotic susceptibility class,host strain YMC14/01/R671,R
same,antibiotic susceptibility class,host strain YMC14/01/R732,R
same,antibiotic susceptibility class,host strain YMC14/01/R767,R
same,antibiotic susceptibility class,host strain YMC14/01/R904,R
same,antibiotic susceptibility class,host strain YMC14/01/R905,R
same,antibiotic susceptibility class,host strain YMC14/01/R921,R
same,antibiotic susceptibility class,host strain YMC14/01/R941,R
same,antibiotic susceptibility class,host strain YMC14/01/R958,R
same,antibiotic susceptibility class,host strain YMC14/01/R1006,R
same,antibiotic susceptibility class,host strain YMC14/01/R1199,R
same,antibiotic susceptibility class,host strain YMC14/01/R1659,R
same,antibiotic susceptibility class,host strain YMC14/01/R1722,R
same,antibiotic susceptibility class,host strain YMC14/01/R1752,R
same,antibiotic susceptibility class,host strain YMC14/01/R2429,R
same,antibiotic susceptibility class,host strain YMC14/01/R2572,R
same,antibiotic susceptibility class,host strain YMC14/01/R2855,R
same,antibiotic susceptibility class,host strain YMC14/01/R2945,R
same,antibiotic susceptibility class,host strain YMC14/01/R3007,R
same,antibiotic susceptibility class,host strain YMC14/01/R3129,R
same,antibiotic susceptibility class,host strain YMC14/01/R3317,R
same,antibiotic susceptibility class,host strain YMC14/01/R3474,R
same,antibiotic susceptibility class,host strain YMC14/01/R3574,R
same,antibiotic susceptibility class,host strain YMC14/01/U313,R
same,antibiotic susceptibility class,host strain YMC14/01/U318,R
same,antibiotic susceptibility class,host strain YMC14/02/L18,R
same,antibiotic susceptibility class,host strain YMC14/02/P47,R
same,antibiotic susceptibility class,host strain YMC14/02/R1860,R
same,antibiotic susceptibility class,host strain YMC14/02/R2417,R
same,antibiotic susceptibility class,host strain YMC14/02/R2599,R
same,antibiotic susceptibility class,host strain YMC14/02/R2668,R
same,antibiotic susceptibility class,host strain YMC14/02/R2758,R
same,antibiotic susceptibility class,host strain YMC14/02/R2781,R
same,antibiotic susceptibility class,host strain YMC14/02/R3106,R
same,antibiotic susceptibility class,host strain YMC14/02/R3419,R
same,antibiotic susceptibility class,host strain YMC14/02/U1607,R
same,antibiotic susceptibility class,host strain YMC14/03/L9,R
same,antibiotic susceptibility class,host strain YMC14/03/P471,R
same,antibiotic susceptibility class,host strain YMC14/03/R122,R
same,antibiotic susceptibility class,host strain YMC14/03/R217,R
same,antibiotic susceptibility class,host strain YMC14/03/R380,R
same,antibiotic susceptibility class,host strain YMC14/03/R618,R
same,antibiotic susceptibility class,host strain YMC14/03/R2144,R
same,antibiotic susceptibility class,host strain YMC14/03/U4616,R
same,antibiotic susceptibility class,host strain YMC14/04/R1078,R
same,antibiotic susceptibility class,host strain YMC14/04/R1080,R
same,susceptibility category (S/I/R),host strain YMC14/06/R2359,R
same,susceptibility category (S/I/R),host strain YMC14/08/R1169,R
same,susceptibility category (S/I/R),host strain YMC14/08/T90,R
same,susceptibility category (S/I/R),host strain YMC15/02/R436,R
same,susceptibility category (S/I/R),host strain YMC15/02/T28,R
same,susceptibility category (S/I/R),host strain YMC15/03/R1604,R
same,susceptibility category (S/I/R),host strain YMC15/09/R1869,R
same,susceptibility category (S/I/R),host strain YMC16/01/P11,R
same,susceptibility category (S/I/R),host strain YMC16/01/R123,R
same,susceptibility category (S/I/R),host strain YMC16/01/R198,R
same,susceptibility category (S/I/R),host strain YMC16/01/R353,R
same,susceptibility category (S/I/R),host strain YMC16/01/R380,R
same,susceptibility category (S/I/R),host strain YMC16/01/R397,R
same,susceptibility category (S/I/R),host strain YMC16/01/R405,R
same,susceptibility category (S/I/R),host strain YMC16/03/R4461,R
same,susceptibility category (S/I/R),host strain YMC16/05/R2210,R
same,susceptibility category (S/I/R),host strain YMC16/07/R2512,R
same,susceptibility category (S/I/R),host strain YMC16/09/R2471,R
same,susceptibility category (S/I/R),host strain YMC16/10/R2537,R
same,susceptibility category (S/I/R),host strain YMC16/12/B11422,R
same,susceptibility category (S/I/R),host strain YMC16/12/B11449,R
same,susceptibility category (S/I/R),host strain YMC16/12/B13325,R
same,susceptibility category (S/I/R),host strain YMC16/12/P503,R
same,susceptibility category (S/I/R),host strain YMC16/12/R4637,R
same,susceptibility category (S/I/R),host strain YMC17/01/B8053,R
same,susceptibility category (S/I/R),host strain YMC17/01/B10087,R
same,susceptibility category (S/I/R),host strain YMC17/01/B12075,R
same,susceptibility category (S/I/R),host strain YMC17/01/B13454,R
same,susceptibility category (S/I/R),host strain YMC17/01/P518,R
same,susceptibility category (S/I/R),host strain YMC17/01/R2812,R
same,susceptibility category (S/I/R),host strain YMC17/02/B14,R
same,susceptibility category (S/I/R),host strain YMC17/02/B87,R
same,susceptibility category (S/I/R),host strain YMC17/02/B721,R
same,susceptibility category (S/I/R),host strain YMC17/02/B4039,R
same,susceptibility category (S/I/R),host strain YMC17/02/B4520,R
same,susceptibility category (S/I/R),host strain YMC17/02/B4864,S
same,susceptibility category (S/I/R),host strain YMC17/02/B8414,R
same,susceptibility category (S/I/R),host strain YMC17/02/P523,R
same,susceptibility category (S/I/R),host strain YMC17/02/R541,R
same,susceptibility category (S/I/R),host strain YMC17/02/R2392,R
same,susceptibility category (S/I/R),host strain YMC17/03/B4730,R
same,susceptibility category (S/I/R),host strain YMC17/03/B5000,R
same,susceptibility category (S/I/R),host strain YMC17/03/P971,R
same,susceptibility category (S/I/R),host strain YMC17/03/R348,R
same,susceptibility category (S/I/R),host strain YMC17/03/R585,R
same,susceptibility category (S/I/R),host strain YMC17/03/R1888,R
same,susceptibility category (S/I/R),host strain YMC17/03/R3279,R
same,susceptibility category (S/I/R),host strain YMC17/03/R4077,R
same,susceptibility category (S/I/R),host strain YMC17/03/R4607,R
same,susceptibility category (S/I/R),host strain YMC17/04/R488,R
same,susceptibility category (S/I/R),host strain YMC17/04/R640,R
same,susceptibility category (S/I/R),host strain YMC/17/05/R1095,R
